According to patent US8048897B2, “Cyclohexane derivative, prodrug thereof and salt thereof, and therapeutic agent containing the same for diabetes” (Chugai Seiyaku Kabushiki Kaisha, priority 2004, dated 2011):

Target: T1, human SGLT2 (Homo sapiens, UniProt P31639)
T1 construct: expressed in transfected cells; host or cells: CHO-K1
T1 sequence (P31639 1-672): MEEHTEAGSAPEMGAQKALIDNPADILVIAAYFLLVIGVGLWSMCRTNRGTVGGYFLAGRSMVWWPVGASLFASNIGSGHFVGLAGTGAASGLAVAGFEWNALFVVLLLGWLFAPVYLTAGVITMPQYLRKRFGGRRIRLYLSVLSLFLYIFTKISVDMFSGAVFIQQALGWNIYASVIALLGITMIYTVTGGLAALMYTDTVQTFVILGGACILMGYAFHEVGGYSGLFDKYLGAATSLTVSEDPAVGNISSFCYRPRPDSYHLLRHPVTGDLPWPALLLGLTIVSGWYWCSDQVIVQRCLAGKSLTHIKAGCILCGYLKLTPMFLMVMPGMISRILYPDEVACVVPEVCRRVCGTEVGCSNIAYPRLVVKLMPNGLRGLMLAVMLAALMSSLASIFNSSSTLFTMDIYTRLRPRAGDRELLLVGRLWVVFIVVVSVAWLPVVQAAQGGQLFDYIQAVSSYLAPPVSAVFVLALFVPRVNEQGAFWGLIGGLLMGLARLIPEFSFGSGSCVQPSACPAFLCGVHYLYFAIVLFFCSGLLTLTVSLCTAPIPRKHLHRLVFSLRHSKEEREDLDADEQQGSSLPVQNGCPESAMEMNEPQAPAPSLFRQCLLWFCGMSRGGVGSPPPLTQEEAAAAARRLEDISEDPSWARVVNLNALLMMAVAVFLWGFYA
Assay: Methyl-α-D-glucopyranoside intake inhibition activity in human SGLT2 stable expression CHO cells
Type: cell-based
Settings: methyl-α-D-(U-14C)glucopyranoside intake, 37° C., 45 minutes
Experimental: Test for Confirming Action of Inhibiting Human Na^+-Glucose Co-Transporters (SGLT1 and SGLT2)
(2) Preparation of Human SGLT2 Expression Vector
PCR was performed by KOD+DNA polymerase by taking a human kidney-derived cDNA library (a product of Clontech) as a template with the use of a synthesized DNA primer to amplify human SGLT2 cDNA. […] From the proliferated E. coli, a plasmid was purified according to the usual way. By taking this plasmid as a template, PCR was performed by KOD+DNA polymerase with the use of a synthetic DNA primer into which restriction enzyme recognition sites had been introduced to amplify human SGLT2 cDNA (a fragment added with Xho I recognition site on the upstream side and a Hind III recognition site on the downstream side). This amplified fragment was subjected to Xho I and Hind III digestion, and the digested fragments were connected to their recognition sites of the expression vector pcDNA 3.1(−) with the use of the Rapid DNA Ligation kit. The connected expression vector was introduced into E. coli competent cells (DH5α) and proliferated in an ampicillin-containing LB medium to obtain a human SGLT2 expression vector according to the usual way.
(3) Preparation of Human SGLT1 Stable Expression Cell and Human SGLT2 Stable Expression Cell
The human SGLT1 expression vector or the human SGLT2 expression vector which was digested with restriction enzyme Pvu I was introduced into CHO-K1 cells with the use of FuGene (a product of Roche Diagonostics). After introduction of the gene, the cells were incubated in a DMEM medium (a product of Gibco) containing penicillin (50 U/mL, a product of Sigma), streptomycin (50 mg/L, a product of Sigma), Geneticin (200 mg/L, a product of Nakalai Tesque) and 20% bovine fetal serum in the presence of 5% CO2 at 37° C. for about three weeks to obtain Genticin-resistant clones. From these clones, cells capable of stably expressing human SGLT1 or the human SGLT2 were selected and obtained by using sodium dependent sugar (methyl-α-D-glucopyranoside) intake activity as an index.
(4) Measurement of Methyl-α-D-glucopyranoside Intake Inhibition Activity
The human SGLT1 stable expression CHO cells or the human SGLT2 stable expression CHO cells was seeded in a 96-well plate to a density of 30,000 to 40,000 cells/well and incubated for four to six days. Next, the medium of the culture plate was removed, and a pretreatment buffer (a buffer containing 140 mM of choline chloride, 2 mM of potassium chloride, 1 mM of calcium chloride, 1 mM of magnesium chloride, 10 mM of 2-[4-(2-hydroxyethyl)-1-piperazinyl]ethanesulfonic acid and tris(hydroxymethyl)-aminomethane and having a pH of 7.4) was added in an amount of 150 μL per well and then left to stand at 37° C. for 20 minutes. The pretreatment buffer was removed and the pretreatment buffer was again added in an amount of 50 μL per well and then left to stand at 37° C. for 20 minutes. To 100 mL of a buffer (a buffer containing 140 mM of sodium chloride, 1 mM of potassium chloride, 1 mM of magnesium chloride, 1 mM of methyl-α-D-glucopyranoside, 10 mM of 2-[4-(2-hydroxyethyl)-1-piperazinyl]ethanesulfonic acid and tris(hydroxymethyl)aminomethane and having a pH of 7.4), there was added and mixed 6.3 mL of methyl-α-D-(U-^14C)glucopyranoside (200 mCi/L, a product of Amersham Pharmacia Biotech) to prepare an intake buffer, and a test compound was dissolved in this intake buffer and the resulting solution was used as a buffer for determining inhibition activity. Further, as a control, a test compound-free intake buffer was used. Furthermore, in order to determine a basic intake in the absence of the test compound and sodium, a basic intake buffer containing 140 mM of choline chloride instead of the sodium chloride was prepared in the same manner and used in the determina-tion. […]

COc1ccc(Cc2cccc([C@@H]3C[C@H](CO)[C@@H](O)[C@H](O)[C@H]3O)c2)cc1 (single isomer, unassigned) [Example 2]
IC50: 111 nM

COc1ccc(Cc2ccccc2O[C@@H]2C[C@H](CO)[C@@H](O)[C@H](O)[C@H]2O)cc1 [Example 1, [2-(4-Methoxybenzyl)phenyl]-5a-carba-β-D-glucopyranoside]
IC50: 61 nM

OC[C@H]1C[C@@H](Oc2ccccc2Cc2ccc(C3CC3)cc2)[C@H](O)[C@@H](O)[C@@H]1O [Example 8, [2-(4-Cyclopropylbenzyl)phenyl]-5a-carba-β-D-glucopyranoside]
IC50: 7 nM

CSc1ccc(Cc2ccccc2O[C@@H]2C[C@H](CO)[C@@H](O)[C@H](O)[C@H]2O)cc1 [Example 11, [2-(4-Methylsulfanylbenzyl)phenyl]-5a-carba-β-D-gluco-pyranoside]
IC50: 14 nM

COc1ccc(Cc2c(F)cccc2O[C@@H]2C[C@H](CO)[C@@H](O)[C@H](O)[C@H]2O)cc1 [Example 12]
IC50: 18 nM

CCc1ccc(Cc2ccccc2O[C@@H]2C[C@H](CO)[C@@H](O)[C@H](O)[C@H]2O)cc1 [Example 25, [2-(4-Ethylbenzyl)phenyl]-5a-carba-β-D-glucopyranoside]
IC50: 31 nM

OC[C@H]1C[C@@H](Oc2cnccc2Cc2ccc(C3CC3)cc2)[C@H](O)[C@@H](O)[C@@H]1O [Example 42, [4-(4-Cyclopropylbenzyl)pyridin-3-yl]-5a-carba-β-D-gluco-pyranoside]
IC50: 7.7 nM

C=Cc1ccc(Cc2ccccc2O[C@@H]2C[C@H](CO)[C@@H](O)[C@H](O)[C@H]2O)cc1 [Example 44, [2-(4-Vinylbenzyl)phenyl]-5a-carba-β-D-glucopyranoside]
IC50: 16 nM

COc1ccc(Cc2ccc(C)cc2O[C@@H]2C[C@H](CO)[C@@H](O)[C@H](O)[C@H]2O)cc1 [Example 54, [2-(4-Methoxybenzyl)-5-methylphenyl]-5a-carba-β-D-gluco-pyranoside]
IC50: 14 nM

CCc1ccc(Cc2sccc2O[C@@H]2C[C@H](CO)[C@@H](O)[C@H](O)[C@H]2O)cc1 [Example 55, [2-(4-Ethylbenzyl)thiophen-3-yl]-5a-carba-β-D-gluco-pyranoside]
IC50: 17 nM

Cc1cc(O[C@@H]2C[C@H](CO)[C@@H](O)[C@H](O)[C@H]2O)c(Cc2ccc(C3CC3)cc2)s1 [Example 59, [2-(4-Cyclopropylbenzyl)-5-methylthiophen-3-yl]-5a-carba-β-D-glucopyranoside]
IC50: 8.9 nM

OCC1=C[C@@H](Oc2ccccc2Cc2ccc(C3CC3)cc2)[C@H](O)[C@@H](O)[C@@H]1O [Example 62, (1R,2S,3R,6R)-6-[2-(4-Cyclopropylbenzyl)phenoxy]-4-(hydroxymethyl)cyclohex-4-ene-1,2,3-triol]
IC50: 7.1 nM

CCc1ccc(Cc2cccc(C3=C[C@H](CO)[C@@H](O)[C@H](O)[C@H]3O)c2)cc1 [Example 64, (1R,2S,3S,6R)-4-[3-(4-Ethylbenzyl)phenyl]-6-(hydroxy-methyl)cyclohex-4-ene-1,2,3-triol]
IC50: 6.6 nM

CCOc1ccc(Cc2ccc(CC)cc2)cc1[C@@H]1C[C@H](CO)[C@@H](O)[C@H](O)[C@H]1O [Example 68, (1R,2R,3S,4S,6R)-4-[2-Ethoxy-5-(4-ethylbenzyl)phenyl]-6-(hydroxymethyl)cyclohexane-1,2,3-triol]
IC50: 18 nM

CCc1ccc(Cc2cc([C@]3(O)C[C@H](CO)[C@@H](O)[C@H](O)[C@H]3O)c(OC)cc2OC)cc1 [Example 69, (1R,2R,3S,4R,5R)-1-[5-(4-Ethylbenzyl)-2,4-dimethoxy-phenyl]-5-(hydroxymethyl)cyclohexane-1,2,3,4-tetraol]
IC50: 5.1 nM

CCc1ccc(Cc2cc([C@@H]3C[C@H](CO)[C@@H](O)[C@H](O)[C@H]3O)c(OC)cc2OC)cc1 [Example 70, (1R,2R,3S,4S,6R)-4-[5-(4-Ethylbenzyl)-2,4-dimethoxy-phenyl]-6-(hydroxymethyl)cyclohexane-1,2,3-triol]
IC50: 7.4 nM

CCc1ccc(Cc2ccc(OC)c([C@]3(O)C[C@H](CO)[C@@H](O)[C@H](O)[C@H]3O)c2)cc1 [Example 73, (1R,2R,3S,4R,5R)-1-[5-(4-Ethylbenzyl)-2-methoxyphenyl]-5-(hydroxymethyl)cyclohexane-1,2,3,4-tetraol]
IC50: 11 nM
